Laboratory results as given in paper PMC12298351, “Novel 3,19-(N-Phenyl-3-(4-fluorophenyl)-pyrazole) Acetal of Andrographolide Promotes Cell Cycle Arrest and Apoptosis in MDA-MB-231 Breast Cancer Cells” (Pharmaceuticals, 2025).

What was measured:
HCT-116 = type: cell-based; details: HCT-116, Colon
[1] = DPPH radical scavenging assay; details: 25 µM test compound, 0.1 mM DPPH, acetonitrile, 30 min
Procedure, shortened: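 Compounds at 25 µM in acetonitrile mixed 1:2 with 0.1 mM DPPH in acetonitrile, kept 30 min in the dark at room temperature. Absorbance read at 517 nm; % scavenging = (Ac − As)/Ac × 100, Ac being DPPH blank. Ascorbic acid positive control.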

CCRF-CEM = details: for GI50 / Total growth inhibition (TGI): Leukemia; for CC50: read-out: 50% lethal concentration (LC50), Leukemia
HL-60(TB) = details: for GI50 / Total growth inhibition (TGI): Leukemia; for CC50: read-out: 50% lethal concentration (LC50), Leukemia
SR = details: for GI50 / Total growth inhibition (TGI): Leukemia; for CC50: read-out: 50% lethal concentration (LC50), Leukemia
A549/ATCC = details: for Total growth inhibition (TGI): Non-Small Cell Lung; for GI50: Non-Small-Cell Lung; for CC50: read-out: 50% lethal concentration (LC50), Non-Small Cell Lung
HOP-62 = details: for Total growth inhibition (TGI) / CC50: HOP-62, Non-Small Cell Lung; for GI50: HOP-62, Non-Small-Cell Lung; for CC50: read-out: 50% lethal concentration (LC50)
HOP-92 = details: for Total growth inhibition (TGI) / CC50: HOP-92, Non-Small Cell Lung; for GI50: HOP-92, Non-Small-Cell Lung; for CC50: read-out: 50% lethal concentration (LC50)
NCI-H226 = details: for Total growth inhibition (TGI) / CC50: NCI-H226, Non-Small Cell Lung; for GI50: NCI-H226, Non-Small-Cell Lung; for CC50: read-out: 50% lethal concentration (LC50)
NCI-H460 = details: for Total growth inhibition (TGI) / CC50: NCI-H460, Non-Small Cell Lung; for GI50: NCI-H460, Non-Small-Cell Lung; for CC50: read-out: 50% lethal concentration (LC50)
NCI-H522 = details: for Total growth inhibition (TGI) / CC50: NCI-H522, Non-Small Cell Lung; for GI50: NCI-H522, Non-Small-Cell Lung; for CC50: read-out: 50% lethal concentration (LC50)
SF-539 = details: SF-539, CNS; for CC50: read-out: 50% lethal concentration (LC50)
SNB-75 = details: SNB-75, CNS; for CC50: read-out: 50% lethal concentration (LC50)
MALME-3M = details: Melanoma
MDA-MB-435 = details: MDA-MB-435, Melanoma; for CC50: read-out: 50% lethal concentration (LC50)
SK-MEL-28 = details: SK-MEL-28, Melanoma; for CC50: read-out: 50% lethal concentration (LC50)
UACC-62 = details: UACC-62, Melanoma; for CC50: read-out: 50% lethal concentration (LC50)
OVCAR-8 = details: OVCAR-8, Ovarian; for CC50: read-out: 50% lethal concentration (LC50)
NCI/ADR-RES = details: for GI50 / Total growth inhibition (TGI): Ovarian; for CC50: read-out: 50% lethal concentration (LC50), Ovarian
786-0 = details: 786-0, Renal; for CC50: read-out: 50% lethal concentration (LC50)
A498 = details: A498, Renal; for CC50: read-out: 50% lethal concentration (LC50)
ACHN = details: for GI50 / Total growth inhibition (TGI): Renal; for CC50: read-out: 50% lethal concentration (LC50), Renal
RXF 393 = details: RXF 393, Renal; for CC50: read-out: 50% lethal concentration (LC50)
UO-31 = details: UO-31, Renal; for CC50: read-out: 50% lethal concentration (LC50)
DU-145 = details: DU-145, Prostate
MCF7 = details: MCF7, Breast; for CC50: read-out: 50% lethal concentration (LC50)
HS 578T = details: for GI50 / Total growth inhibition (TGI): Breast; for CC50: read-out: 50% lethal concentration (LC50), Breast
[2] = read-out: 50% lethal concentration (LC50)

With `C=C1CCC2C3(C)COC(c4cn(-c5ccccc5)nc4-c4ccc(OC)cc4)OC3CCC2(C)C1CC=C1C(=O)OCC1O` (stereo not shown) [1j] the GI50 (HCT-116) was 1.4 µM, the Total growth inhibition (TGI) (HCT-116) was 3.11 µM and the “% DPPH radical scavenging activity” value [1] was 59.2%. The GI50 (CCRF-CEM) was 0.64 µM, the Total growth inhibition (TGI) (CCRF-CEM) was > 100 µM and the CC50 (CCRF-CEM) was > 100 µM. The GI50 (HL-60(TB)) was 1.08 µM, the Total growth inhibition (TGI) (HL-60(TB)) was 3.96 µM and the CC50 (HL-60(TB)) was > 100 µM. The GI50 (SR) was 1.74 µM, the Total growth inhibition (TGI) (SR) was 5.21 µM and the CC50 (SR) was > 100 µM. For the same molecule, the Total growth inhibition (TGI) (A549/ATCC) was 7.29 µM, the GI50 (A549/ATCC) was 2.39 µM and the CC50 (A549/ATCC) was 62.2 µM. For the same molecule, the Total growth inhibition (TGI) (HOP-62) was 10.4 µM, the GI50 (HOP-62) was 2.65 µM and the CC50 (HOP-62) was 86.3 µM. It also gave a Total growth inhibition (TGI) (HOP-92) of 3.02 µM, a GI50 (HOP-92) of 1.47 µM and a CC50 (HOP-92) of 6.2 µM. For the same molecule, the Total growth inhibition (TGI) (NCI-H226) was 3.36 µM, the GI50 (NCI-H226) was 1.72 µM and the CC50 (NCI-H226) was 6.55 µM. The Total growth inhibition (TGI) (NCI-H460) was 3.5 µM, the GI50 (NCI-H460) was 1.74 µM and the CC50 (NCI-H460) was 7.01 µM. It also gave a Total growth inhibition (TGI) (NCI-H522) of 3.24 µM, a GI50 (NCI-H522) of 1.73 µM and a CC50 (NCI-H522) of 6.06 µM. The GI50 (SF-539) was 1.69 µM, the Total growth inhibition (TGI) (SF-539) was 3.1 µM and the CC50 (SF-539) was 5.7 µM. For the same molecule, the GI50 (SNB-75) was 1.15 µM, the Total growth inhibition (TGI) (SNB-75) was 5.09 µM and the CC50 (SNB-75) was 24.4 µM. The GI50 (MALME-3M) was 1.54 µM, the Total growth inhibition (TGI) (MALME-3M) was 2.93 µM and the GI50 (MDA-MB-435) was 1.54 µM. It also gave a Total growth inhibition (TGI) (MDA-MB-435) of 3.17 µM, a CC50 (MDA-MB-435) of 6.51 µM and a GI50 (SK-MEL-28) of 1.94 µM. The Total growth inhibition (TGI) (SK-MEL-28) was 3.69 µM, the CC50 (SK-MEL-28) was 7.01 µM and the GI50 (UACC-62) was 1.91 µM. The Total growth inhibition (TGI) (UACC-62) was 4.26 µM, the CC50 (UACC-62) was 9.48 µM and the GI50 (OVCAR-8) was 1.35 µM. It also gave a Total growth inhibition (TGI) (OVCAR-8) of 2.84 µM, a CC50 (OVCAR-8) of 5.97 µM and a GI50 (NCI/ADR-RES) of 1.94 µM. The Total growth inhibition (TGI) (NCI/ADR-RES) was 4.41 µM, the CC50 (NCI/ADR-RES) was > 100 µM and the GI50 (786-0) was 2.3 µM. The Total growth inhibition (TGI) (786-0) was 5.59 µM, the CC50 (786-0) was > 100 µM and the GI50 (A498) was 2.63 µM. The Total growth inhibition (TGI) (A498) was 11.3 µM, the CC50 (A498) was 39.2 µM and the GI50 (ACHN) was 1.52 µM. For the same molecule, the Total growth inhibition (TGI) (ACHN) was 2.87 µM, the CC50 (ACHN) was 5.41 µM and the GI50 (RXF 393) was 0.89 µM. It also gave a Total growth inhibition (TGI) (RXF 393) of 2.2 µM, a CC50 (RXF 393) of 4.98 µM and a GI50 (UO-31) of 1.22 µM. It also gave a Total growth inhibition (TGI) (UO-31) of 2.54 µM, a CC50 (UO-31) of 5.25 µM and a GI50 (DU-145) of 2.04 µM. The Total growth inhibition (TGI) (DU-145) was 4.94 µM, the CC50 (DU-145; [2]) was 16.4 µM and the GI50 (MCF7) was 1.46 µM. For the same molecule, the Total growth inhibition (TGI) (MCF7) was > 100 µM, the CC50 (MCF7) was > 100 µM and the GI50 (HS 578T) was 1.86 µM. For the same molecule, the Total growth inhibition (TGI) (HS 578T) was 4.88 µM and the CC50 (HS 578T) was > 100 µM.
Molecule `C=C1CCC2C3(C)COC(c4cn(-c5ccccc5)nc4-c4ccc(Cl)cc4)OC3CCC2(C)C1CC=C1C(=O)OCC1O` (stereo not shown) [1g] has a GI50 (HCT-116) of 1.2 µM, a Total growth inhibition (TGI) (HCT-116) of 2.53 µM and a CC50 (HCT-116; [2]) of 5.37 µM. The “% DPPH radical scavenging activity” value [1] was 57.45%, the GI50 (CCRF-CEM) was 0.92 µM and the Total growth inhibition (TGI) (CCRF-CEM) was > 100 µM. The CC50 (CCRF-CEM) was > 100 µM, the GI50 (HL-60(TB)) was 2.67 µM and the Total growth inhibition (TGI) (HL-60(TB)) was > 100 µM. The CC50 (HL-60(TB)) was > 100 µM, the GI50 (SR) was 2.53 µM and the Total growth inhibition (TGI) (SR) was > 100 µM. For the same molecule, the CC50 (SR) was > 100 µM, the Total growth inhibition (TGI) (A549/ATCC) was 36.3 µM and the GI50 (A549/ATCC) was 3.57 µM. The CC50 (A549/ATCC) was > 100 µM, the Total growth inhibition (TGI) (HOP-62) was 4.95 µM and the GI50 (HOP-62) was 2.36 µM. The CC50 (HOP-62) was > 100 µM, the Total growth inhibition (TGI) (HOP-92) was 3.08 µM and the GI50 (HOP-92) was 1.5 µM. It also gave a CC50 (HOP-92) of 6.32 µM, a Total growth inhibition (TGI) (NCI-H226) of 3.05 µM and a GI50 (NCI-H226) of 1.55 µM. It also gave a CC50 (NCI-H226) of 5.99 µM, a Total growth inhibition (TGI) (NCI-H460) of 3.72 µM and a GI50 (NCI-H460) of 1.79 µM. The CC50 (NCI-H460) was 7.76 µM, the Total growth inhibition (TGI) (NCI-H522) was 3.12 µM and the GI50 (NCI-H522) was 1.58 µM. For the same molecule, the CC50 (NCI-H522) was 6.17 µM, the GI50 (SF-539) was 1.72 µM and the Total growth inhibition (TGI) (SF-539) was 3.12 µM. It also gave a CC50 (SF-539) of 5.66 µM, a GI50 (SNB-75) of 1.69 µM and a Total growth inhibition (TGI) (SNB-75) of 2.87 µM. For the same molecule, the CC50 (SNB-75) was 5.87 µM, the GI50 (MALME-3M) was 1.82 µM and the Total growth inhibition (TGI) (MALME-3M) was 3.41 µM. For the same molecule, the GI50 (MDA-MB-435) was 1.65 µM, the Total growth inhibition (TGI) (MDA-MB-435) was 3.28 µM and the CC50 (MDA-MB-435) was 6.51 µM. It also gave a GI50 (SK-MEL-28) of 1.78 µM, a Total growth inhibition (TGI) (SK-MEL-28) of 3.36 µM and a CC50 (SK-MEL-28) of 6.35 µM. It also gave a GI50 (UACC-62) of 1.68 µM, a Total growth inhibition (TGI) (UACC-62) of 3.27 µM and a CC50 (UACC-62) of 6.39 µM. For the same molecule, the GI50 (OVCAR-8) was 1.95 µM, the Total growth inhibition (TGI) (OVCAR-8) was 4.97 µM and the CC50 (OVCAR-8) was > 100 µM. The GI50 (NCI/ADR-RES) was 1.83 µM, the Total growth inhibition (TGI) (NCI/ADR-RES) was 4.24 µM and the CC50 (NCI/ADR-RES) was 9.87 µM. It also gave a GI50 (786-0) of 1.99 µM, a Total growth inhibition (TGI) (786-0) of 4.17 µM and a CC50 (786-0) of 8.7 µM. It also gave a GI50 (A498) of 5.2 µM, a Total growth inhibition (TGI) (A498) of 19 µM and a CC50 (A498) of 53.7 µM. The GI50 (ACHN) was 1.89 µM, the Total growth inhibition (TGI) (ACHN) was 3.95 µM and the CC50 (ACHN) was 8.23 µM. The GI50 (RXF 393) was 1.79 µM, the Total growth inhibition (TGI) (RXF 393) was 3.37 µM and the CC50 (RXF 393) was 6.33 µM. For the same molecule, the GI50 (UO-31) was 1.99 µM, the Total growth inhibition (TGI) (UO-31) was 4.17 µM and the CC50 (UO-31) was 5.6 µM. It also gave a GI50 (DU-145) of 2.05 µM, a Total growth inhibition (TGI) (DU-145) of 4.1 µM and a GI50 (MCF7) of 1.51 µM. For the same molecule, the Total growth inhibition (TGI) (MCF7) was > 100 µM, the CC50 (MCF7) was 42.8 µM and the GI50 (HS 578T) was 1.75 µM. For the same molecule, the Total growth inhibition (TGI) (HS 578T) was 3.24 µM and the CC50 (HS 578T) was 6.45 µM.
